Assay results from patent US7052672B2, “Stabilized radiopharmaceutical compositions” (GE Healthcare Limited, priority 2000, dated 2006).

Assays:
[1] = paraben with M=H; at 25° C.; cited from earlier work
[2] = 13C NMR investigation of the reaction between ascorbic acid and methylparaben; assay type: physicochemical
Method: Small portions of powdered sodium hydroxide were added with agitation to adjust the pH. At 3 defined pH's (pH 7.5, 8.8 and 9.6), a representative aliquot (0.5 cm^3) was transferred to an NMR tube. The 3 sampled reaction mixtures were monitored daily for one week by ^13C NMR When not being monitored, the mixtures were stored at room temperature protected from light. At the end of the monitoring period a small quantity of methanol was added to the solution to confirm that, if hydrolysis had occurred, the ^13C NMR signal for any methanol produced by transesterification would have been well separated from that for the initial methyl ester resonance.
The ^13C NMR spectra were obtained using a JEOL EX270 NMR spectrometer with a broad-band tuneable probe operating at a frequency of 67.94 MHz. The data for each spectrum was acquired over a period of about 30 min.
An aliquot (0.5 cm^3) of the colourless solution was removed and monitored by ^13C NMR spectroscopy. As part of the monitoring process the sample was placed in a Bruker AM250 NMR spectrometer after 29 hours and its ^13C NMR spectrum accumulated over a period of 16 hours. […] A small quantity of methanol was then added to the sample as a reference peak.

| Structure (SMILES) | solubility in water [1] | additional components from interaction of ascorbic acid and methylparaben (13C NMR) ([2]; Experiment B, pH 9.5, spectrum started after 29 hours, accumulated over 16 hours) | formation of methanol from hydrolysis of methylparaben (13C NMR) ([2]; Experiment B, pH 9.5, with ascorbic acid, after 29 hours, accumulated 16 hours) | reaction with ascorbic acid or hydrolysis (13C NMR) ([2]; even at pH approximately 9.6 after 7 days) |
| --- | --- | --- | --- | --- |
| CCOC(=O)c1ccc(O)cc1 [ethylparaben, Ethylparaben] | 0.070% w/w at 25° C., | – | – | – |
| COC(=O)c1ccc(O)cc1 [methylparaben, Methylparaben] | – | no significant quantities of any additional components had been produced | no evidence for the formation of any methanol | no evidence was found from ^13C NMR studies for any significant reaction between ascorbic acid and methylparaben, or any significant hydrolysis |
